ChEMBL document CHEMBL4507318, “Data for DCP probe BAY-985” (2021)

Tests used:
[1] = target: Calcium/calmodulin-dependent protein kinase type II subunit alpha (Homo sapiens) (UniProt Q9UQM7)
[2] = target: Ribosomal protein S6 kinase beta-1 (Homo sapiens) (UniProt P23443)
[3] = target: Mitogen-activated protein kinase 10 (Homo sapiens) (UniProt P53779)
[4] = target: Tyrosine-protein kinase receptor TYRO3 (Homo sapiens) (UniProt Q06418)
[5] = target: Tyrosine-protein kinase Lck (Homo sapiens) (UniProt P06239)
[6] = target: Alpha-2B adrenergic receptor (Homo sapiens) (UniProt P18089); conditions: Compound concentration 10.0 uM
[7] = target: Sodium-dependent serotonin transporter (Homo sapiens) (UniProt P31645); conditions: Compound concentration 10.0 uM
[8] = target: Tyrosine-protein kinase ABL2 (Homo sapiens) (UniProt P42684)
[9] = target: Phosphatidylinositol 5-phosphate 4-kinase type-2 beta (Homo sapiens) (UniProt P78356)
[10] = test system: Receptor-type tyrosine-protein kinase FLT3 (Homo sapiens), P36888 [UNDEFINED MUTATION]
Chain of Receptor-type tyrosine-protein kinase FLT3 (Homo sapiens), P36888 [UNDEFINED MUTATION] (P36888 whole entry, looked up, change not shown): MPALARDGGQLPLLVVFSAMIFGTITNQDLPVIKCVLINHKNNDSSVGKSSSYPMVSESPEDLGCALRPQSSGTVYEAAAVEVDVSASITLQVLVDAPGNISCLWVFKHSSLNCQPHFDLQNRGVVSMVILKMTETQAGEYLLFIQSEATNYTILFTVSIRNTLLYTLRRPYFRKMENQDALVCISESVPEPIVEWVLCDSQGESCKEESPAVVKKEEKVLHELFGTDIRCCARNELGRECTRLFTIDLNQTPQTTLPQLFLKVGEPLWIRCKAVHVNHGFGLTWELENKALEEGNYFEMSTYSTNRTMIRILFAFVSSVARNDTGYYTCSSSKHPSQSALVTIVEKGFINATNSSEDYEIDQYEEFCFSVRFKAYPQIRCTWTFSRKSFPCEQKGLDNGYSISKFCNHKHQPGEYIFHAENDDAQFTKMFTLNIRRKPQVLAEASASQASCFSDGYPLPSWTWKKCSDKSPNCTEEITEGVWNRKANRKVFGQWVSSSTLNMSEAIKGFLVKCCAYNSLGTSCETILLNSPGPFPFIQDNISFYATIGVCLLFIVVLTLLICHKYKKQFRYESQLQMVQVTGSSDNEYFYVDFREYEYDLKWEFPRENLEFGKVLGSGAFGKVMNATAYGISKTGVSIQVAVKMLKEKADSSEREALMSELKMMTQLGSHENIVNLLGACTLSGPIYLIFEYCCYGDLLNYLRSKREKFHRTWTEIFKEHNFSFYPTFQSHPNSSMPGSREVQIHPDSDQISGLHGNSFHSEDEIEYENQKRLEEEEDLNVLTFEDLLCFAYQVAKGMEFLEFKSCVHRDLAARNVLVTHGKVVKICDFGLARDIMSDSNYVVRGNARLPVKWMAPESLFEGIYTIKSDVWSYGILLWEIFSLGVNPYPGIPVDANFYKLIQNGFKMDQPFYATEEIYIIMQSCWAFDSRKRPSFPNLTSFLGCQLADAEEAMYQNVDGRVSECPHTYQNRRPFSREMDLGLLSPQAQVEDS

[11] = test system: Receptor-type tyrosine-protein kinase FLT3 (Homo sapiens), P36888 [UNDEFINED MUTATION]; remark: listed apart in the source
[12] = target: Cyclin-dependent kinase 4 (Homo sapiens) (UniProt P11802)
[13] = target: Calcium/calmodulin-dependent protein kinase type 1D (Homo sapiens) (UniProt Q8IU85)
Chain of Calcium/calmodulin-dependent protein kinase type 1D (Homo sapiens) (Q8IU85 whole entry, looked up): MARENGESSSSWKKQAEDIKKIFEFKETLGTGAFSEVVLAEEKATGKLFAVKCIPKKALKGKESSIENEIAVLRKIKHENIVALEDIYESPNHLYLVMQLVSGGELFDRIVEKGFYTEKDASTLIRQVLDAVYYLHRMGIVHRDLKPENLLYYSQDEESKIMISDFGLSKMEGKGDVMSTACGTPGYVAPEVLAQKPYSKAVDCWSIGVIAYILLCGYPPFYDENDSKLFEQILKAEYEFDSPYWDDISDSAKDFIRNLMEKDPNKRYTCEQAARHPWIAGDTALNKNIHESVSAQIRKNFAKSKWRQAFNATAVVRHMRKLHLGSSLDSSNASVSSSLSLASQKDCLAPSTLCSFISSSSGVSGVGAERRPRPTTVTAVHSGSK

[14] = target: Histamine H3 receptor (Homo sapiens) (UniProt Q9Y5N1); conditions: Compound concentration 10.0 uM
[15] = target: Mitogen-activated protein kinase kinase kinase kinase 2 (Homo sapiens) (UniProt Q12851)
[16] = target: Ribosomal protein S6 kinase alpha-4 (Homo sapiens) (UniProt O75676)
Chain of Ribosomal protein S6 kinase alpha-4 (Homo sapiens) (O75676 whole entry, looked up): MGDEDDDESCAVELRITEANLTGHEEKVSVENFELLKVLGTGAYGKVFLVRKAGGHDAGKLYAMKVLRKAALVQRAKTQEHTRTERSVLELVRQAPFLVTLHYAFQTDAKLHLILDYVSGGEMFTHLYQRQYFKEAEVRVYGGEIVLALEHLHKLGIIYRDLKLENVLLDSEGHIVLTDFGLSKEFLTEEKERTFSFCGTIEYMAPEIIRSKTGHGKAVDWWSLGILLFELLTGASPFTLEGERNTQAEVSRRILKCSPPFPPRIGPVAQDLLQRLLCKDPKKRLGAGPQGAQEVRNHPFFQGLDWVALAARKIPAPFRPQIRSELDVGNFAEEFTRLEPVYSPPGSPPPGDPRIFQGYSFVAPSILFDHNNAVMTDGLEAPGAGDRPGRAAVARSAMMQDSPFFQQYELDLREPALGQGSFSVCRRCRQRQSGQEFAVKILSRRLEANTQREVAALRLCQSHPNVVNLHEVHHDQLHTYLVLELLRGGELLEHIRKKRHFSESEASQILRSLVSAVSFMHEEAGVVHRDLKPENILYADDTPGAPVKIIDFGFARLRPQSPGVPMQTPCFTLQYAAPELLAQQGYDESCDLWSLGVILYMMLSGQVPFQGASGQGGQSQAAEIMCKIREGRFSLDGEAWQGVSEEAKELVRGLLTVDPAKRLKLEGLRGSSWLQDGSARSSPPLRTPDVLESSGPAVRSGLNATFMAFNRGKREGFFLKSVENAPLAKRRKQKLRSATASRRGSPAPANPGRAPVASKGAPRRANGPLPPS

[17] = target: MAP kinase-interacting serine/threonine-protein kinase 2 (Homo sapiens) (UniProt Q9HBH9)
[18] = target: Fibroblast growth factor receptor 3 (Homo sapiens) (UniProt P22607)
Chain of Fibroblast growth factor receptor 3 (Homo sapiens) (P22607 23-806 limits assumed): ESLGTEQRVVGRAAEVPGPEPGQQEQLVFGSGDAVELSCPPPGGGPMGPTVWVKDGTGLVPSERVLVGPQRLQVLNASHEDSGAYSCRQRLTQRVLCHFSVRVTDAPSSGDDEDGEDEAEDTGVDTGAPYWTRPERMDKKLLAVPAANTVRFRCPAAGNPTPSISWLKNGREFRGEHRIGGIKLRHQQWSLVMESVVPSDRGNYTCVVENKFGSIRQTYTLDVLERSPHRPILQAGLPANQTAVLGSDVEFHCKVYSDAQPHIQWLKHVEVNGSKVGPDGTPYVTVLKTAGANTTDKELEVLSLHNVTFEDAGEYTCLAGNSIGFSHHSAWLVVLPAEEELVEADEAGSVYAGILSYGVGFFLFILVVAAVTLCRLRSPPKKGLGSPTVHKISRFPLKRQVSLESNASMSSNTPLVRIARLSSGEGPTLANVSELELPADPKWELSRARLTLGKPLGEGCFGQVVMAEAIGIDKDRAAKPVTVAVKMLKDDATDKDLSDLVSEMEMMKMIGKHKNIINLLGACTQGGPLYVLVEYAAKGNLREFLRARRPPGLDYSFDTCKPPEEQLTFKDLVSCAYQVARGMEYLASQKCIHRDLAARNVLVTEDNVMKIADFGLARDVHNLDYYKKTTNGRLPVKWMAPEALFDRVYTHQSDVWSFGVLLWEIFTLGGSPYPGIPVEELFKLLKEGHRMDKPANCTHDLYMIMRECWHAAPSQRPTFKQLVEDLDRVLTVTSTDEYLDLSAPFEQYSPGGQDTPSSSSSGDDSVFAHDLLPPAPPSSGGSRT

[19] = target: Protein kinase C epsilon type (Homo sapiens) (UniProt Q02156)
[20] = target: Tyrosine-protein kinase JAK3 (Homo sapiens) (UniProt P52333)
Chain of Tyrosine-protein kinase JAK3 (Homo sapiens) (P52333 whole entry, canonical isoform): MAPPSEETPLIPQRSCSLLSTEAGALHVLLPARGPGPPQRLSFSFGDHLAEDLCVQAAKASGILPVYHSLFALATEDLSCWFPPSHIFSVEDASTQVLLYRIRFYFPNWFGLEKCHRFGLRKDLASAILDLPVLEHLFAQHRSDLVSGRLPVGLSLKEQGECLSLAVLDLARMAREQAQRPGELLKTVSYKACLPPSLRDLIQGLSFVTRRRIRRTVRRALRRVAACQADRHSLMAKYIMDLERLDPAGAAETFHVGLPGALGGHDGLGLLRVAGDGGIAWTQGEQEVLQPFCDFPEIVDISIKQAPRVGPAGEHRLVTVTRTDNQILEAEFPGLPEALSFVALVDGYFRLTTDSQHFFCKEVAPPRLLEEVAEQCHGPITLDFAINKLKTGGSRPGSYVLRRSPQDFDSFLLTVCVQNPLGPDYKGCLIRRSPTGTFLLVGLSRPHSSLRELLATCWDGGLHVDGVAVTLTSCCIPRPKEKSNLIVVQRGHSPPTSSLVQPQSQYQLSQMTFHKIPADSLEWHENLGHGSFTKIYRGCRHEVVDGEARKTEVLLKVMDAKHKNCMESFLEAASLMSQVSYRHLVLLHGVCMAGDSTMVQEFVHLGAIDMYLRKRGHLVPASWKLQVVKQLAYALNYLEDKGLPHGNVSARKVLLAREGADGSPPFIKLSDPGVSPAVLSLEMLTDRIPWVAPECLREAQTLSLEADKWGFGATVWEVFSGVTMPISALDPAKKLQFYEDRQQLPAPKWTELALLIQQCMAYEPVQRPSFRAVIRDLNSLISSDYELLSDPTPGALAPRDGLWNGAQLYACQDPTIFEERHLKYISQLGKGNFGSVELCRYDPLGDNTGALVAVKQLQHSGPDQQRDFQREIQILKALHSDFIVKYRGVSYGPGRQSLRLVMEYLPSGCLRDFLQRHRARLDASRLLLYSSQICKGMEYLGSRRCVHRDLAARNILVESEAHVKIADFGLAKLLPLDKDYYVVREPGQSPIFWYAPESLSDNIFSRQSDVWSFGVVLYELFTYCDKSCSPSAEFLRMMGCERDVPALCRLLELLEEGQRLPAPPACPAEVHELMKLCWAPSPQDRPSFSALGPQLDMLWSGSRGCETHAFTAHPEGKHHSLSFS

[21] = target: Phosphatidylinositol 4,5-bisphosphate 3-kinase catalytic subunit gamma isoform (Homo sapiens) (UniProt P48736)
[22] = test system: Tyrosine-protein kinase ABL1 (Homo sapiens), P00519 [E255K]
[23] = target: 1-phosphatidylinositol 3-phosphate 5-kinase (Homo sapiens) (UniProt Q9Y2I7)
[24] = target: Protein kinase C iota type (Homo sapiens) (UniProt P41743)
[25] = target: Serine/threonine-protein kinase BRSK1 (Homo sapiens) (UniProt Q8TDC3)
[26] = target: Activin receptor type-2A (Homo sapiens) (UniProt P27037)
[27] = target: High affinity nerve growth factor receptor (Homo sapiens) (UniProt P04629)
[28] = target: Mitogen-activated protein kinase 12 (Homo sapiens) (UniProt P53778)
[29] = test system: Phosphatidylinositol 4,5-bisphosphate 3-kinase catalytic subunit alpha isoform (Homo sapiens), P42336 [E545K]
[30] = target: Serine/threonine-protein kinase Nek11 (Homo sapiens) (UniProt Q8NG66)
[31] = test system: Phosphatidylinositol 4,5-bisphosphate 3-kinase catalytic subunit alpha isoform (Homo sapiens), P42336 [C420R]
[32] = target: Serine/threonine-protein kinase pim-2 (Homo sapiens) (UniProt Q9P1W9)
Chain of Serine/threonine-protein kinase pim-2 (Homo sapiens) (Q9P1W9 whole entry, looked up): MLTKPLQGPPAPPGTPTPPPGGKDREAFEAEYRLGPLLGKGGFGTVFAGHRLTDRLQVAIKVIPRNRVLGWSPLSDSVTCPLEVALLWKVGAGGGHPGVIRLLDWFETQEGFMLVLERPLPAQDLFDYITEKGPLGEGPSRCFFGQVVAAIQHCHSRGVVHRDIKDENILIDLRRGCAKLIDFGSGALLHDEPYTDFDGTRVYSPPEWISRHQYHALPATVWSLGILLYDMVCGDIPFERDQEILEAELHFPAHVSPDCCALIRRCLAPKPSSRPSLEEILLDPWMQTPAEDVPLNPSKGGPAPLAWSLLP

[33] = target: Myosin light chain kinase family member 4 (Homo sapiens) (UniProt Q86YV6)
[34] = target: TRAF2 and NCK-interacting protein kinase (Homo sapiens) (UniProt Q9UKE5)
[35] = target: Cyclin-dependent kinase 19 (Homo sapiens) (UniProt Q9BWU1)
[36] = target: Myosin light chain kinase (Homo sapiens) (UniProt Q32MK0)
[37] = target: Discoidin domain-containing receptor 2 (Homo sapiens) (UniProt Q16832)
[38] = target: Bone morphogenetic protein receptor type-2 (Homo sapiens) (UniProt Q13873)
[39] = target: Tyrosine-protein kinase ZAP-70 (Homo sapiens) (UniProt P43403)
[40] = target: Serine/threonine-protein kinase Chk2 (Homo sapiens) (UniProt O96017)
[41] = target: Dual specificity mitogen-activated protein kinase kinase 2 (Homo sapiens) (UniProt P36507)
Chain of Dual specificity mitogen-activated protein kinase kinase 2 (Homo sapiens) (P36507 whole entry): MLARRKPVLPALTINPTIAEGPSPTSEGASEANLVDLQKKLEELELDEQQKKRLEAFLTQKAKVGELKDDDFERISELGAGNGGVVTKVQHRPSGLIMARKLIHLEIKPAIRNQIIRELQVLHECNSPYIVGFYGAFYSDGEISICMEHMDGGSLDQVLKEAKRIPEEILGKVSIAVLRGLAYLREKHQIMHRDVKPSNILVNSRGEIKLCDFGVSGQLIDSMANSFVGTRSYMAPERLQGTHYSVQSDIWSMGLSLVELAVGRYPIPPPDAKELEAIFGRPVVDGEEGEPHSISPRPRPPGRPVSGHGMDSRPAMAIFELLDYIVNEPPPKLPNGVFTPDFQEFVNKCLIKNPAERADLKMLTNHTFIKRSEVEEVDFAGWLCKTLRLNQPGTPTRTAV

[42] = target: Serine/threonine-protein kinase SIK1 (Homo sapiens) (UniProt P57059)
[43] = target: Dual specificity tyrosine-phosphorylation-regulated kinase 2 (Homo sapiens) (UniProt Q92630)
[44] = target: Mitogen-activated protein kinase 4 (Homo sapiens) (UniProt P31152)
[45] = target: Muscarinic acetylcholine receptor M2 (Homo sapiens) (UniProt P08172); conditions: Compound concentration 10.0 uM
[46] = Compound concentration 1000.0 nM
[47] = Compound concentration 100.0 nM

Molecule `CN(C)c1ncnc(-c2ccc3nc(Nc4cc(CN5CCN(C(=O)CC(F)(F)F)CC5)ccn4)[nH]c3c2)c1Cl` [BAY-440] has a residual activity [1, 46] of 100%, a residual activity [2, 46] of 92% and a residual activity [3, 46] of 51%. It also gave a residual activity [4, 46] of 100%, a residual activity [5, 46] of 100% and an inhibition [6] of -2.22%. The inhibition [7] was 9.9%, the residual activity [8, 46] was 71% and the residual activity [9, 46] was 52%. For the same molecule, the residual activity [10, 46] was 35%, the residual activity [11, 46] was 15% and the residual activity [12, 46] was 70%. The residual activity [13, 46] was 100%, the inhibition [14] was 4.68% and the residual activity [15, 46] was 69%. For the same molecule, the residual activity [16, 46] was 80%, the residual activity [17, 46] was 37% and the residual activity [18, 46] was 100%. For the same molecule, the residual activity [19, 46] was 100%, the residual activity [20, 46] was 71% and the residual activity [21, 46] was 100%. The residual activity [22, 46] was 49%, the residual activity [23, 46] was 81% and the residual activity [24, 46] was 79%. The residual activity [25, 46] was 100%, the residual activity [26, 46] was 90% and the residual activity [27, 46] was 38%. For the same molecule, the residual activity [28, 46] was 68%, the residual activity [29, 46] was 76% and the residual activity [30, 46] was 55%. The residual activity [31, 46] was 88%, the residual activity [32, 46] was 100% and the residual activity [33, 46] was 100%. It also gave a residual activity [34, 46] of 53%, a residual activity [35, 46] of 75% and a residual activity [36, 46] of 90%. It also gave a residual activity [37, 46] of 71%, a residual activity [38, 46] of 61% and a residual activity [39, 46] of 100%. For the same molecule, the residual activity [40, 46] was 100%, the residual activity [41, 46] was 74% and the residual activity [42, 46] was 94%. The residual activity [43, 46] was 81%, the residual activity [44, 46] was 100% and the inhibition [45] was 35.1%.
`C[C@H](c1ccnc(Nc2nc3ccc(-c4cc(N(C)C)ncn4)cc3[nH]2)c1)N1CCN(C(=O)CC(F)(F)F)CC1` [BAY-985] showed a residual activity [1, 47] of 99%, a residual activity [2, 47] of 100% and a residual activity [3, 47] of 81%. The residual activity [4, 47] was 96%, the residual activity [5, 47] was 100% and the inhibition [6] was 24.7%. The inhibition [7] was 21.6%, the residual activity [8, 47] was 100% and the residual activity [9, 47] was 75%. The residual activity [10, 47] was 42%, the residual activity [11, 47] was 64% and the residual activity [12, 47] was 89%. For the same molecule, the residual activity [13, 47] was 95%, the inhibition [14] was -3.83% and the residual activity [15, 47] was 100%. The residual activity [16, 47] was 100%, the residual activity [17, 47] was 86% and the residual activity [18, 47] was 100%. The residual activity [19, 47] was 96%, the residual activity [20, 47] was 83% and the residual activity [21, 47] was 100%. It also gave a residual activity [22, 47] of 97%, a residual activity [23, 47] of 100% and a residual activity [24, 47] of 100%. The residual activity [25, 47] was 100%, the residual activity [26, 47] was 100% and the residual activity [27, 47] was 79%. The residual activity [28, 47] was 95%, the residual activity [29, 47] was 100% and the residual activity [30, 47] was 96%. It also gave a residual activity [31, 47] of 100%, a residual activity [32, 47] of 100% and a residual activity [33, 47] of 100%. The residual activity [34, 47] was 96%, the residual activity [35, 47] was 93% and the residual activity [36, 47] was 100%. The residual activity [37, 47] was 100%, the residual activity [38, 47] was 100% and the residual activity [39, 47] was 100%. For the same molecule, the residual activity [40, 47] was 84%, the residual activity [41, 47] was 100% and the residual activity [42, 47] was 96%. The residual activity [43, 47] was 87%, the residual activity [44, 47] was 100% and the inhibition [45] was 32.9%.
